Test results: patent publication US12655150B2 (Cedilla Therapeutics, Inc., priority 2021, dated 2026)

These compounds were tested on NCI-H226 (assay: 72H TEAD Proliferation Assay (Cell Titer Glo 2.0)). Conditions: Homo sapiens, NCI-H226, 72 h, CTG 2.0, cell line not given (NCI-H226 responsive, NCI-H28 non-responsive).
Assay type: cell-based
In short: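 Growth read-out is ATP luminescence (CellTiter-Glo 2.0) after 72 h compound exposure, corrected for no-CTG background and day-0 values, with GI50 from nonlinear regression. Sensitive line NCI-H226 (NF2-deficient); non-responsive NCI-H28 (NF2 wild type) distinguishes TEAD-driven from nonspecific growth inhibition.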

| GI50 [µM] | SMILES |
| --- | --- |
| > 10 | O=C(O)c1ccc2c(c1)nc(N1CCC3(CC1)CC3)c1nccn12 [I-56, 4-(6-Azaspiro[2.5]octan-6-yl)imidazo[1,2-a]quinoxaline-7-carboxylic acid] |
| 1 to 5 | CC(=O)c1cc(-c2ccc(C(F)(F)F)cc2)nc2cc(C(=O)O)ccc12 [I-396, 4-acetyl-2-(4-(trifluoromethyl)phenyl)quinoline-7-carboxylic acid] |
| > 10 | O=C(O)c1ccc2c(c1)nc(-c1ccc(C3(C(F)(F)F)CC3)cc1)c1nccn12 [I-67, 4-(4-(1-(Trifluoromethyl)cyclopropyl)phenyl)imidazo[1,2-a]quinoxaline-7-carboxylic acid] |
| 1 to 5 | O=C(O)c1ccc2c(c1)nc(N1CCC(C(F)F)CC1)c1cccn12 [I-17, 4-(4-(Difluoromethyl)piperidin-1-yl)pyrrolo[1,2-a]quinoxaline-7-carboxylic acid] |
| 1 to 5 | C=CC(=O)n1ccc2c(-c3ccc(C(C)(C)C)cc3)nccc21 [I-105, 1-(4-(4-(tert-Butyl)phenyl)-1H-pyrrolo[3,2-c]pyridin-1-yl)prop-2-en-1-one] |
| 5 to 10 | Cc1nc2ccc(C(=O)O)cc2nc1-c1ccc(C(F)(F)F)cc1 [I-422, 2-methyl-3-(4-(trifluoromethyl)phenyl)quinoxaline-6-carboxylic acid] |
| 1 to 5 | C=CC(=O)Nc1ccc2cnc(-c3ccc(C)cc3)nc2c1 [I-81, N-(2-(p-Tolyl)quinazolin-7-yl)acrylamide] |
| ≤ 1 | Cc1cn2cc(CNC(=O)/C=C/CF)nc(-c3ccc(C(F)(F)F)cc3)c2n1 [I-248, (E)-4-fluoro-N-((2-methyl-8-(4-(trifluoromethyl)phenyl)imidazo[1,2-a]pyrazin-6-yl)methyl)but-2-enamide] |
| ≤ 1 | CC(NC(=O)N1CCc2c(cccc2-c2ccc(C(F)(F)F)cc2)C1)c1ccccn1 (stereo not shown) [I-179, N-(1-(pyridin-2-yl)ethyl)-5-(4-(trifluoromethyl)phenyl)-3,4-dihydroisoquinoline-2(1H)-carboxamide] |
| ≤ 1 | C=CC(=O)NCc1nc2ncccn2c1-c1ccc(C(F)(F)F)cc1 [I-410, N-((3-(4-(trifluoromethyl)phenyl)imidazo[1,2-a]pyrimidin-2-yl)methyl)acrylamide] |
| ≤ 1 | C=CC(=O)NCC(=C)c1cn2ccnc2c(-c2ccc(C(F)(F)F)cc2)n1 [I-250, N-(2-(8-(4-(trifluoromethyl)phenyl)imidazo[1,2-a]pyrazin-6-yl)allyl)acrylamide] |
| 1 to 5 | CC(CO)NC(=O)c1ccc2c(c1)nc(-c1ccc(C(C)(C)C)cc1)c1cccn12 (stereo not shown) [I-186, 4-(4-(tert-butyl)phenyl)-N-(1-hydroxypropan-2-yl)pyrrolo[1,2-a]quinoxaline-7-carboxamide] |
| ≤ 1 | C=C(F)C(=O)NCc1nc(-c2ccc(C(F)(F)F)cc2)c2cccnc2n1 [I-307, 2-fluoro-N-((4-(4-(trifluoromethyl)phenyl)pyrido[2,3-d]pyrimidin-2-yl)methyl)acrylamide] |
| 1 to 5 | COc1cc(-c2ccc(C(F)(F)F)cc2)nc2cc(C(=O)NC3(CO)CC3)ccc12 [I-353, N-(1-(hydroxymethyl)cyclopropyl)-4-methoxy-2-(4-(trifluoromethyl)phenyl)quinoline-7-carboxamide] |
| 5 to 10 | C=CC(=O)Nc1ncc2c(ccn2-c2ccc(C(C)(C)C)cc2)n1 [I-100, N-(5-(4-(tert-butyl)phenyl)-5H-pyrrolo[3,2-d]pyrimidin-2-yl)acrylamide] |
| 1 to 5 | CC(C)(C)c1ccc(-c2nc3cc(NC(=O)CN)ccc3n3cccc23)cc1 [I-206, 2-Amino-N-(4-(4-(tert-butyl)phenyl)pyrrolo[1,2-a]quinoxalin-7-yl)acetamide] |
| 1 to 5 | O=C(O)c1ccc2c(c1)nc(N1CCC3(CCCC3)C1)c1cccn12 [I-9, 4-(2-Azaspiro[4.4]nonan-2-yl)pyrrolo[1,2-a]quinoxaline-7-carboxylic acid] |
| ≤ 1 | Cc1cc(-c2ccc(C(F)(F)F)cc2)nc2cc(C(=O)NC(C)CO)ccc12 (stereo not shown) [I-260, N-(1-hydroxypropan-2-yl)-4-methyl-2-(4-(trifluoromethyl)phenyl)quinoline-7-carboxamide] |
| 1 to 5 | CC(C)(C)c1ccc(-c2nc3cc(NS(C)(=O)=O)ccc3n3cccc23)cc1 [I-122, N-(4-(4-(tert-butyl)phenyl)pyrrolo[1,2-a]quinoxalin-7-yl)methanesulfonamide] |
| ≤ 1 | C#Cc1cc(-c2ccc(C(F)(F)F)cc2)nc2cc(C(=O)O)ccc12 [I-402, 4-ethynyl-2-(4-(trifluoromethyl)phenyl)quinoline-7-carboxylic acid] |
| 1 to 5 | O=C(O)c1ccc2c(c1)nc(N1CCC3(CCCCC3)CC1)c1cccn12 [I-30, 4-(3-Azaspiro[5.5]undecan-3-yl)pyrrolo[1,2-a]quinoxaline-7-carboxylic acid] |
| ≤ 1 | COc1cc(-c2ccc(C(F)(F)F)cc2)nc2cc(C(=O)N[C@@H](CO)c3ccccn3)ccc12 [I-365, (R)—N-(2-hydroxy-1-(pyridin-2-yl)ethyl)-4-methoxy-2-(4-(trifluoromethyl)phenyl)quinoline-7-carboxamide] |

| GI50 [µM] | SMILES |
| --- | --- |
| 1 to 5 | O=C(O)c1ccc2c(c1)nc(-c1ccc(C(F)(F)F)cc1C(F)(F)F)c1cccn12 [I-199, 4-(2,4-bis(trifluoromethyl)phenyl)pyrrolo[1,2-a]quinoxaline-7-carboxylic acid] |
| 1 to 5 | CC(C)c1cc(-c2ccc(C(F)(F)F)cc2)nc2cc(C(=O)O)ccc12 [I-425, 4-isopropyl-2-(4-(trifluoromethyl)phenyl)quinoline-7-carboxylic acid] |
| ≤ 1 | C=CC(=O)Nc1ccc2c(c1)nc(-c1ccc(C(F)(F)F)cc1F)c1cccn12 [I-114, N-(4-(2-Fluoro-4-(trifluoromethyl)phenyl)pyrrolo[1,2-a]quinoxalin-7-yl) acrylamide] |
| ≤ 1 | C=CC(=O)Nc1ccc2cc(C)c(-c3ccc(C(C)(C)C)cc3)nc2c1 [I-98, N-(2-(4-(tert-butyl)phenyl)-3-methylquinolin-7-yl)acrylamide] |
| 1 to 5 | CC1(C)CCN(c2nc3cc(C(=O)O)ccc3n3cccc23)CC1 [I-3, 4-(4,4-Dimethylpiperidin-1-yl)pyrrolo[1,2-a]quinoxaline-7-carboxylic acid] |
| ≤ 1 | C=CC(=O)NCc1cn2cc(C(F)(F)F)nc2c(-c2ccc(C(F)(F)F)cc2)n1 [I-247, N-((2-(trifluoromethyl)-8-(4-(trifluoromethyl)phenyl)imidazo[1,2-a]pyrazin-6-yl)methyl)acrylamide] |
| 5 to 10 | COc1c(C)c(-c2ccc(C(F)(F)F)cc2)nc2cc(C(=O)N[C@H](C)CO)ccc12 [I-431, (R)—N-(1-hydroxypropan-2-yl)-4-methoxy-3-methyl-2-(4-(trifluoromethyl)phenyl)quinoline-7-carboxamide] |
| ≤ 1 | COc1cc(-c2ccc(C(F)(F)F)cc2)nc2cc(S(C)(=O)=O)ccc12 [I-415, 4-methoxy-7-(methylsulfonyl)-2-(4-(trifluoromethyl)phenyl)quinoline] |
| ≤ 1 | C=CC(=O)NCc1nc(-c2ccc(C(C)(C)C)cc2)c2ccc(F)cc2n1 [I-446, N-((4-(4-(tert-butyl)phenyl)-7-fluoroquinazolin-2-yl)methyl)acrylamide] |
| 5 to 10 | C=CC(=O)NCc1nc(-c2ccc(C(F)(F)F)cc2)c2[nH]ccc2n1 [I-450, N-((4-(4-(trifluoromethyl)phenyl)-5H-pyrrolo[3,2-d]pyrimidin-2-yl)methyl)acrylamide] |
| 1 to 5 | O=C(O)c1ccc2c(c1)nc(N1CCC3(CC1)CC3)c1ccnn12 [I-277, 4-(6-azaspiro[2.5]octan-6-yl)pyrazolo[1,5-a]quinoxaline-7-carboxylic acid] |
| ≤ 1 | Cc1cc(-c2ccc(C(F)(F)F)cc2)nc2cc(C(=O)N[C@@H](C)CO)ccc12 [I-262, (S)—N-(1-hydroxypropan-2-yl)-4-methyl-2-(4-(trifluoromethyl)phenyl)quinoline-7-carboxamide] |
| ≤ 1 | Cc1cc(-c2ccc(C(F)(F)F)cc2)nc2cc(C(=O)N[C@@H](C)c3cccc(C(=O)O)c3)ccc12 [I-267, (S)-3-(1-(4-methyl-2-(4-(trifluoromethyl)phenyl)quinoline-7-carboxamido)ethyl)benzoic acid] |
| ≤ 1 | C#Cc1cc(-c2ccc(C(F)(F)F)cc2)nc2cc(C(=O)N[C@H](CC)CO)ccc12 [I-400, (R)-4-ethynyl-N-(1-hydroxybutan-2-yl)-2-(4-(trifluoromethyl)phenyl)quinoline-7-carboxamide] |
| > 10 | O=C(O)c1ccc2c(c1)nc(N1CCC3(CCCC3)CC1)c1nccn12 [I-57, 4-(8-Azaspiro[4.5]decan-8-yl)imidazo[1,2-a]quinoxaline-7-carboxylic acid] |
| ≤ 1 | CC(C)(C)c1ccc(-c2nc3cc(C(=O)O)ccc3n3cc(OC(F)F)cc23)cc1 [I-274, 4-(4-(tert-butyl)phenyl)-2-(difluoromethoxy)pyrrolo[1,2-a]quinoxaline-7-carboxylic acid] |
| 1 to 5 | O=C(O)c1cc2nc(-c3ccc(C(F)(F)F)cc3)c3ccccc3n2c1 [I-421, 5-(4-(trifluoromethyl)phenyl)pyrrolo[1,2-a]quinazoline-2-carboxylic acid] |
| > 10 | O=C(O)c1ccc2c(c1)nc(N1CCCC1)c1cccn12 [I-15, 4-(Pyrrolidin-1-yl)pyrrolo[1,2-a]quinoxaline-7-carboxylic acid] |
| 1 to 5 | CC[C@H](CO)NC(=O)c1ccc2c(OC)cc(-c3c(Cl)cc(C(F)(F)F)cc3Cl)nc2c1 [I-398, (R)-2-(2,6-dichloro-4-(trifluoromethyl)phenyl)-N-(1-hydroxybutan-2-yl)-4-methoxyquinoline-7-carboxamide] |
| > 10 | O=C(O)c1ccc2c(c1)nc(-c1ccc(F)cc1)c1cccn12 [I-43, 4-(4-Fluorophenyl)pyrrolo[1,2-a]quinoxaline-7-carboxylic acid] |
| > 10 | O=C(O)c1ccc2c(c1)nc(N1CCCC(F)(F)C1)c1cccn12 [I-5, 4-(3,3-Difluoropiperidin-1-yl)pyrrolo[1,2-a]quinoxaline-7-carboxylic acid] |
